This note sets out measurements from ChEMBL document CHEMBL2417441, “Synthesis, structure, and cytotoxicity studies of some fungal isochromanes” (J Nat Prod, 2013).

The subject of assay [1] is HCT-116. In words: Cytotoxicity against human HCT116 cells after 72 hrs by WST-8 assay. Type of assay: functional, cell-based. To be noted: HCT-116, 72 h.
The subject of assay [2] is HCT-116. In words: Induction of apoptosis in human HCT116 cells at 5 uM after 72 hrs by fluorescence microscopic analysis relative to etoposide. The format is functional.
Assay [3] relates to HCT-116. In words: Induction of apoptosis in human HCT116 cells assessed as DNA fragmentation at 5 uM after 72 hrs by TUNEL assay. Type of assay: functional, cell-based.

The source made the active and inactive calls. No cut-off for these calls is given here. A value given as a limit tells only on which side of the number the result lay.

One may read the IC50 as the concentration needed to halve the response being measured. Lower therefore signals higher potency. For the compound `CC(C)=C1Oc2c(ccc3c2C(=O)O[C@H](C)C3)C1=O`, it took 9.8 µM to reach half-maximal inhibition in the assay with HCT-116 [1] (IC50).
Same read-out and setting: the figure for `CC(C)[C@@H]1Oc2c(ccc3c2[C@@H](O)O[C@H](C)C3)C1=O` is > 100 µM; for `CO[C@H]1O[C@H](C)Cc2ccc3c(c21)O[C@H](C(C)C)C3=O` it is > 100 µM.
Consider `CC(C)[C@H]1Oc2c(ccc3c2[C@@H](O)O[C@H](C)C3)C1=O`, for which, in the assay on HCT-116 [1], the IC50 is > 100 µM.
Same read-out and setting: then `C[C@@H](O)Cc1cccc(O)c1CO`, with > 100 µM.
For the compound `CO[C@H]1O[C@H](C)Cc2ccc3c(c21)O[C@@H](C(C)C)C3=O` (relative stereo), the IC50 in the assay on HCT-116 [1] was > 100 µM.
For `CC(C)=C1Oc2c(ccc3c2[C@@H](O)O[C@H](C)C3)C1=O` [(+)-PSEUDODEFLECTUSIN], the “fold change (FC)” value in the assay on HCT-116 [2] is 2. Also, the outcome in the assay with HCT-116 [3] was Active. The compound further showed a half-maximal inhibitory concentration (IC50) in the assay on HCT-116 [1] of 5 µM.
`CC[C@@]1(O)C(=O)OCc2c1cc1n(c2=O)Cc2cc3ccccc3nc2-1` [CAMPTOTHECIN] showed an IC50 in the assay with HCT-116 [1] of 0.016 µM.
On the same count and under the same terms, then `CO[C@H]1O[C@H](C)Cc2ccc3c(c21)OC(=C(C)C)C3=O` [USTUSORANE C], with 5.9 µM.
